Measured values reported in ChEMBL document CHEMBL3046926, “Molecular properties prediction, synthesis, and diuretic activity of phenoxy acetic acid bearing pyrazolines” (2013).

Legend:
Rattus norvegicus [1] = assay: Induction of diuresis in Rattus norvegicus albino (rat) assessed as normal saline intake at 20 mg/kg, po measured at 5-18 hr after drug administration by standard Lipschitz method (reference value: 2.50 +/-0.036 ml); format: functional
Rattus norvegicus [2] = assay: Induction of diuresis in Rattus norvegicus albino (rat) assessed as urinary Na+ excretion at 20 mg/kg, po measured at 5-18 hr after drug administration by standard Lipschitz method (reference value: 0.65+/-0.006 mEq/L); format: functional, Urine
Rattus norvegicus [3] = assay: Induction of diuresis in Rattus norvegicus albino (rat) assessed as urinary excretion at 20 mg/kg, po measured at 0-5 hr after drug administration by standard Lipschitz method (reference value: 98.40%); format: functional, Urine
Rattus norvegicus [4] = assay: Induction of diuresis in Rattus norvegicus albino (rat) assessed as urinary excretion at 20 mg/kg, po measured at 5-18 hr after drug administration by standard Lipschitz method (reference value: 50.4%); format: functional, Urine
Rattus norvegicus [5] = assay: Induction of diuresis in Rattus norvegicus albino (rat) assessed as total urinary output at 20 mg/kg, po measured at 0-5 hr after drug administration by standard Lipschitz method (reference value: 2.46 +/-0.125 ml); format: functional, Urine
Rattus norvegicus [6] = assay: Induction of diuresis action in Rattus norvegicus albino (rat) assessed as urinary excretion at 20 mg/kg, po measured at 0-5 hr after drug administration by standard Lipschitz method against untreated control (reference value: 1 no unit); format: functional, Urine
Rattus norvegicus [7] = assay: Induction of diuresis in Rattus norvegicus albino (rat) assessed as urinary K+ excretion at 20 mg/kg, po measured at 5-18 hr after drug administration by standard Lipschitz method (reference value: 0.22 +/-0.004 mEq/L); format: functional, Urine
Rattus norvegicus [8] = assay: Induction of diuresis in Rattus norvegicus albino (rat) assessed as urinary K+ excretion at 20 mg/kg, po measured at 0-5 hr after drug administration by standard Lipschitz method (reference value: 0.46 +/-0.006 mEq/L); format: functional, Urine
Rattus norvegicus [9] = assay: Induction of diuresis in Rattus norvegicus albino (rat) assessed as urinary Cl- excretion at 20 mg/kg, po measured at 5-18 hr after drug administration by standard Lipschitz method (reference value: 0.38 +/-0.011 mEq/L); format: functional, Urine
Rattus norvegicus [10] = assay: Induction of diuresis in Rattus norvegicus albino (rat) assessed as normal saline intake at 20 mg/kg, po measured at 0-5 hr after drug administration by standard Lipschitz method (reference value: 2.50 +/-0.036 ml); format: functional
Rattus norvegicus [11] = assay: Induction of diuresis in Rattus norvegicus albino (rat) assessed as urinary Cl- excretion at 20 mg/kg, po measured at 0-5 hr after drug administration by standard Lipschitz method (reference value: 0.46 +/-0.005 mEq/L); format: functional, Urine
Rattus norvegicus [12] = assay: Induction of diuresis in Rattus norvegicus albino (rat) assessed as total urinary output at 20 mg/kg, po measured at 5-18 hr after drug administration by standard Lipschitz method (reference value: 1.26 +/-0.049 ml); format: functional, Urine
Rattus norvegicus [13] = assay: Induction of diuresis action in Rattus norvegicus albino (rat) assessed as urinary excretion at 20 mg/kg, po measured at 5-18 hr after drug administration by standard Lipschitz method against untreated control (reference value: 1 no unit); format: functional, Urine
Rattus norvegicus [14] = assay: Induction of diuresis activity in Rattus norvegicus albino (rat) assessed as urinary excretion at 20 mg/kg, po measured at 5-18 hr after drug administration by standard Lipschitz method against frusemide-treated control (reference value: 0.2 no unit); format: functional, Urine
Rattus norvegicus [15] = assay: Induction of diuresis in Rattus norvegicus albino (rat) assessed as urinary Na+ excretion at 20 mg/kg, po measured at 0-5 hr after drug administration by standard Lipschitz method (reference value: 0.90 +/-0.003 mEq/L); format: functional, Urine
Rattus norvegicus [16] = assay: Induction of diuresis activity in Rattus norvegicus albino (rat) assessed as urinary excretion at 20 mg/kg, po measured at 0-5 hr after drug administration by standard Lipschitz method against frusemide-treated control (reference value: 0.5 no unit); format: functional, Urine

Row | SMILES | Activity (Rattus norvegicus [1]) | Activity (Rattus norvegicus [2]) | Activity (Rattus norvegicus [3]) | Activity (Rattus norvegicus [4]) | Activity (Rattus norvegicus [5]) | Ratio (Rattus norvegicus [6]) | Activity (Rattus norvegicus [7]) | Activity (Rattus norvegicus [8]) | Activity (Rattus norvegicus [9]) | Activity (Rattus norvegicus [10]) | Activity (Rattus norvegicus [11]) | Activity (Rattus norvegicus [12]) | Ratio (Rattus norvegicus [13]) | Ratio (Rattus norvegicus [14]) | Activity (Rattus norvegicus [15]) | Ratio (Rattus norvegicus [16])
1 | COc1cc(C2CC(c3ccc(Cl)cc3)=NN2C(=O)COc2ccc(C)cc2)ccc1OCC(=O)O (stereo unspecified) | 2.86 mL | 3.13 mEq/L | 197.55% | 284.96% | 5.65 mL | 2 | 1.87 mEq/L | 1.32 mEq/L | 1.68 mEq/L | 2.86 mL | 1.36 mEq/L | 8.15 mL | 5.68 | 1.14 | 2.61 mEq/L | 1.01
2 | COc1cc(C2CC(c3ccc(O)cc3)=NN2C(=O)COc2ccc(C)cc2)ccc1OCC(=O)O (stereo unspecified) | 2.88 mL | 0.12 mEq/L | 62.84% | 11.45% | 1.81 mL | 0.6 | 0.19 mEq/L | 0.25 mEq/L | 0.07 mEq/L | 2.88 mL | 0.24 mEq/L | 0.33 mL | 0.22 | 0.04 | 0.45 mEq/L | 0.3
3 | COc1cc(C2CC(c3ccccc3)=NN2C(=O)c2ccccc2O)ccc1OCC(=O)O (stereo unspecified) | 2.34 mL | 0.16 mEq/L | 49.57% | 8.54% | 1.16 mL | 0.5 | 0.12 mEq/L | 0.16 mEq/L | 0.06 mEq/L | 2.34 mL | 0.16 mEq/L | 0.2 mL | 0.16 | 0.03 | 0.35 mEq/L | 0.25
4 | COc1cc(C2CC(c3ccc(O)cc3)=NN2C(=O)c2ccc(Cl)cc2)ccc1OCC(=O)O (stereo unspecified) | 2.84 mL | 1.95 mEq/L | 89.28% | 183.45% | 2.5 mL | 0.9 | 0.56 mEq/L | 0.45 mEq/L | 0.95 mEq/L | 2.84 mL | 0.46 mEq/L | 5.21 mL | 3.66 | 0.74 | 0.87 mEq/L | 0.45
5 | COc1cc(C2CC(c3ccc(Cl)cc3)=NN2C(=O)c2ccc(Cl)cc2)ccc1OCC(=O)O (stereo unspecified) | 2.67 mL | 3.26 mEq/L | 226.96% | 278% | 6.06 mL | 2.2 | 1.76 mEq/L | 1.55 mEq/L | 1.77 mEq/L | 2.67 mL | 1.94 mEq/L | 7.43 mL | 5.56 | 1.12 | 2.82 mEq/L | 1.11
6 | NS(=O)(=O)c1cc(C(=O)O)c(NCc2ccco2)cc1Cl [FUROSEMIDE] | 2.75 mL | 3.11 mEq/L | 194.54% | 247.63% | 5.35 mL | 1.97 | 3.11 mEq/L | 1.27 mEq/L | 1.83 mEq/L | 2.75 mL | 1.24 mEq/L | 6.81 mL | 4.94 | 1 | 2.44 mEq/L | 1
